Broadly, the IC50 is the concentration needed to halve the response being measured.

One assay concerns the target Human plasma kallikrein (Homo sapiens (Human), UniProt P03952). The assay can be described thus: Determination of the IC50 for plasma kallikrein. The class given is biochemical. The settings on record: 37° C., read-out: IC50 (human PKal). As for the experimental part: Determination of the IC50 for Plasma Kallikrein
Plasma kallikrein inhibitory activity in vitro was determined using standard published methods (see e.g. Johansen et al., Int. J. Tiss. Reac. 1986, 8, 185; Shori et al., Biochem. Pharmacol., 1992, 43, 1209; Stiirzebecher et al., Biol. Chem. Hoppe-Seyler, 1992, 373, 1025). Human plasma kallikrein (Protogen) was incubated at 37° C. with the fluorogenic substrate H-DPro-Phe-Arg-AFC and various concentrations of the test compound. Residual enzyme activity (initial rate of reaction) was determined by measuring the change in optical absorbance at 410 nm and the IC50 value for the test compound was determined.

The target in a further assay is Human KLK1 (Homo sapiens (Human), UniProt P06870). As to the kind of experiment: Determination of the IC50 for KLK1. In kind it is biochemical. As to conditions: Human KLK1, 37° C., substrate H-DVal-Leu-Arg-AFC. On the procedure: Determination of the IC50 for KLK1
KLK1 inhibitory activity in vitro was determined using standard published methods (see e.g. Johansen et al., Int. J. Tiss. Reac. 1986, 8, 185; Shori et al., Biochem. Pharmacol., 1992, 43, 1209; Stürzebecher et al., Biol. Chem. Hoppe-Seyler, 1992, 373, 1025). Human KLK1 (Callbiochem) was incubated at 37° C. with the fluorogenic substrate H-DVal-Leu-Arg-AFC and various concentrations of the test compound. Residual enzyme activity (initial rate of reaction) was determined by measuring the change in optical absorbance at 410 nm and the IC50 value for the test compound was determined.

Setting [1] is: fluorogenic substrate H-DPro-Phe-Arg-AFC.

Like-named read-outs stand apart in the source and are kept apart here.

Chain of Human KLK1 (P06870 25-262): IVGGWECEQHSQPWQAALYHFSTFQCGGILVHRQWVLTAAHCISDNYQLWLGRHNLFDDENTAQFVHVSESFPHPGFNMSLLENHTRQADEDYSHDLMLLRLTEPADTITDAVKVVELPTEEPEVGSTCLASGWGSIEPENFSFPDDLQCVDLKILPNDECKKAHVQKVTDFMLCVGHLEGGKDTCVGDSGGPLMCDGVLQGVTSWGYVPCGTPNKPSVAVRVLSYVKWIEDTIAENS
Chain of Human plasma kallikrein (P03952 391-638): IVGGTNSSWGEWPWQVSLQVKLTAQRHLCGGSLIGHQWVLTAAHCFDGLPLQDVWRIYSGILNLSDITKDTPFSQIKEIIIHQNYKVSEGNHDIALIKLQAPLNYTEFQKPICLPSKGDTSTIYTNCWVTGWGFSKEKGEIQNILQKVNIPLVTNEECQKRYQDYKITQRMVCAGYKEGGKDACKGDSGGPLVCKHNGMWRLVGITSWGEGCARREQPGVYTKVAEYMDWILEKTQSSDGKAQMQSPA
Chain of Human plasma kallikrein (P03952 20-390 partner): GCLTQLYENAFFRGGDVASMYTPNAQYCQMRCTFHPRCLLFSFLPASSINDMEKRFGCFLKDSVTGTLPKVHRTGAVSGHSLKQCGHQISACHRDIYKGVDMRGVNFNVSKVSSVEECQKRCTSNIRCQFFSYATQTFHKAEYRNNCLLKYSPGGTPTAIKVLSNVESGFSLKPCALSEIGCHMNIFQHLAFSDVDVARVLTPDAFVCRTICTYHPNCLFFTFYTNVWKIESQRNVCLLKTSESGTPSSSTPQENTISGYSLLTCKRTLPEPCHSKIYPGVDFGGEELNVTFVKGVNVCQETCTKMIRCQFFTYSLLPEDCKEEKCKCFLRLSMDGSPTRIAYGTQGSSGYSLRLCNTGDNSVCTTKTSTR

Take `CCOc1ccc(C[C@@H](NC(=O)c2sccc2OC)C(=O)N[C@@H](Cc2ccccc2)C(=O)NCc2ccc(CN)cc2)cc1` [Example 122, 3-Methoxy-thiophene-2-carboxylic acid [(R)-1-[(S)-1-(4-aminomethyl-benzylcarbamoyl)-2-phenyl-ethylcarbamoyl]-2-(4-ethoxy-phenyl)-ethyl]-amide]: the IC50 was determined as 0.519 µM on Human plasma kallikrein (substrate H-DPro-Phe-Arg-AFC) and 4.8 µM against Human KLK1 (Table 13).
Regarding `CCOc1ccc(C[C@@H](C(=O)N[C@@H](Cc2ccccc2)C(=O)NCc2ccc(CN)cc2)N(C)C(=O)CC)cc1` [Example 66, (S)-N-(4-Aminomethyl-benzyl)-2-[(S)-3-(4-ethoxy-phenyl)-2-(methyl-propionyl-amino)-propionylamino]-3-phenyl-propionamide], the IC50 on Human plasma kallikrein (setting [1]) is 10 µM; on Human KLK1 (Table 12) it was 8.4 µM.
In the case of `CCOc1ccc(C[C@@H](NC(=O)CC(F)(F)F)C(=O)N[C@@H](Cc2ccccc2)C(=O)NCc2ccc(CN)cc2)cc1` [Example 109, N-[(R)-1-[(S)-1-(4-Aminomethyl-benzylcarbamoyl)-2-phenyl-ethylcarbamoyl]-2-(4-ethoxy-phenyl)-ethyl]-3,3,3-trifluoro-propionamide], the IC50 on Human plasma kallikrein (substrate H-DPro-Phe-Arg-AFC) was 0.155 µM; on Human KLK1 (Table 13), > 10 µM.
For `CCC(=O)N[C@H](Cc1ccc(C(F)(F)F)cc1)C(=O)N[C@@H](Cc1ccc(Cl)c(Cl)c1)C(=O)NCc1ccc(CN)cc1` [Example 19], the IC50 on Human plasma kallikrein (setting [1]) was 10 µM; against Human KLK1 (Table 12), > 10 µM.
Consider `CCOc1ccc(C[C@@H](NC(=O)c2cccc(C(F)(F)F)c2)C(=O)N[C@@H](Cc2ccccc2)C(=O)NCc2ccc(CN)cc2)cc1` [Example 90, N-[(R)-1-[(S)-1-(4-Aminomethyl-benzylcarbamoyl)-2-phenyl-ethylcarbamoyl]-2-(4-ethoxy-phenyl)-ethyl]-3-trifluoromethyl-benzamide], for which the IC50 is 0.276 µM on Human plasma kallikrein (substrate H-DPro-Phe-Arg-AFC) and > 10 µM at Human KLK1 (Table 13).
The corresponding values for `COc1ccc(C[C@@H](NC(=O)c2ccccc2)C(=O)N[C@@H](Cc2ccccc2)C(=O)NCc2ccc(CN)cc2)cn1` [Example 137, N-[(R)-1-[(S)-1-(4-Aminomethyl-benzylcarbamoyl)-2-phenyl-ethylcarbamoyl]-2-(6-methoxy-pyridin-3-yl)-ethyl]-benzamide] are 7.54 µM and > 10 µM.
Consider `CCOc1ccc(C[C@@H](NC(=O)c2ccc(Cl)cc2)C(=O)N[C@@H](Cc2ccccn2)C(=O)NCc2ccc(CN)cc2)cc1` [Example 163, N-[(R)-1-[(S)-1-(4-Aminomethyl-benzylcarbamoyl)-2-pyridin-2-yl-ethylcarbamoyl]-2-(4-ethoxy-phenyl)-ethyl]-4-chloro-benzamide], for which the IC50 at Human plasma kallikrein (substrate H-DPro-Phe-Arg-AFC) was 0.064 µM; on Human KLK1 (Table 13) it was > 10 µM.
As to `CCOc1ccc(C[C@@H](NC(=O)c2ccccc2)C(=O)N[C@@H](Cc2cccc(F)c2)C(=O)NCc2ccc(CN)cc2)cc1` [Example 149, N-[(R)-1-[(S)-1-(4-Aminomethyl-benzylcarbamoyl)-2-(3-fluoro-phenyl)-ethylcarbamoyl]-2-(4-ethoxy-phenyl)-ethyl]-benzamide], the values for the IC50 on Human plasma kallikrein (substrate H-DPro-Phe-Arg-AFC) and at Human KLK1 (Table 13) were 0.091 µM and > 10 µM, respectively.
In the case of `CCOc1ccc(C[C@@H](NC(=O)CC)C(=O)N[C@@H](Cc2ccccc2)C(=O)NCc2ccc(CN)c(F)c2)cc1` [Example 7, (S)-N-(4-Aminomethyl-3-fluoro-benzyl)-2-[(R)-3-(4-ethoxy-phenyl)-2-propionylamino-propionylamino]-3-phenyl-propionamide], the figures for the IC50 on Human plasma kallikrein (setting [1]) and on Human KLK1 (Table 12) were 0.074 µM and > 1 µM, respectively.
Regarding `CCOc1ccc(C[C@@H](NC(=O)CCCc2ccccc2)C(=O)N[C@@H](Cc2ccccc2)C(=O)NCc2ccc(CN)cc2)cc1` [Example 87, N-[(R)-1-[(S)-1-(4-Aminomethyl-benzylcarbamoyl)-2-phenyl-ethylcarbamoyl]-2-(4-ethoxy-phenyl)-ethyl]-4-phenyl-butyramide], the values for the IC50 at Human plasma kallikrein (substrate H-DPro-Phe-Arg-AFC) and on Human KLK1 (Table 13) were 0.755 µM and 3.4 µM, respectively.
The corresponding values for `CCOc1ccc(C[C@@H](NC(=O)c2cnc(C)s2)C(=O)N[C@@H](Cc2ccccc2)C(=O)NCc2ccc(CN)cc2)cc1` [Example 112, 2-Methyl-thiazole-5-carboxylic acid [(R)-1-[(S)-1-(4-aminomethyl-benzylcarbamoyl)-2-phenyl-ethylcarbamoyl]-2-(4-ethoxy-phenyl)-ethyl]-amide] are 0.298 µM and > 10 µM.
Turning to `CC(C)C[C@@H](NCC(=O)O)C(=O)N[C@@H](Cc1ccccc1)C(=O)NCc1ccc(CN)cc1` [Example 28, {(R)-1-[(S)-1-(4-Aminomethyl-benzylcarbamoyl)-2-phenyl-ethylcarbamoyl]-3-methyl-butylamino}-acetic acid], the IC50 at Human plasma kallikrein (setting [1]) is 8.9 µM; on Human KLK1 (Table 12), > 10 µM.
Consider `NCc1ccc(CNC(=O)[C@H](Cc2ccccc2)NC(=O)[C@@H](Cc2ccc(OCc3cccc(F)c3)cc2)NC(=O)c2ccccc2)cc1` [Example 136, N-{(R)-1-[(S)-1-(4-Aminomethyl-benzylcarbamoyl)-2-phenyl-ethylcarbamoyl]-2-[4-(3-fluoro-benzyloxy)-phenyl]-ethyl}-benzamide], for which the IC50 on Human plasma kallikrein (substrate H-DPro-Phe-Arg-AFC) is 1.02 µM; on Human KLK1 (Table 13), > 10 µM.
The like results for `CCOc1ccc(C[C@@H](NC(=O)CC)C(=O)N[C@@H](Cc2ccccn2)C(=O)NCc2ccc(CN)cc2)cc1` [Example 166, (R)-N-[(S)-1-(4-Aminomethyl-benzylcarbamoyl)-2-pyridin-2-yl-ethyl]-3-(4-ethoxy-phenyl)-2-propionylamino-propionamide] were, in that order, 0.262 µM and > 10 µM.
On to `CCOc1ccc(C[C@@H](NC(=O)c2cnc(Cl)c(Cl)c2)C(=O)N[C@@H](Cc2ccccc2)C(=O)NCc2ccc(CN)cc2)cc1` [Example 107, N-[(R)-1-[(S)-1-(4-Aminomethyl-benzylcarbamoyl)-2-phenyl-ethylcarbamoyl]-2-(4-ethoxy-phenyl)-ethyl]-5,6-dichloro-nicotinamide], for which the IC50 on Human plasma kallikrein (substrate H-DPro-Phe-Arg-AFC) came out at 0.133 µM; at Human KLK1 (Table 13), 7.5 µM.
The like results for `CCOc1ccc(C[C@@H](NC(=O)CNS(=O)(=O)c2ccc(C)cc2)C(=O)N[C@@H](Cc2ccccc2)C(=O)NCc2ccc(CN)cc2)cc1` [Example 101, (S)-N-(4-Aminomethyl-benzyl)-2-{(R)-3-(4-ethoxy-phenyl)-2-[2-(toluene-4-sulfonylamino)-acetylamino]-propionylamino}-3-phenyl-propionamide] were, in that order, 1.11 µM and > 10 µM.
The like results for `CCOc1ccc(C[C@@H](NC(=O)C2CC2)C(=O)N[C@@H](Cc2ccccc2)C(=O)NCc2ccc(CN)cc2)cc1` [Example 74, Cyclopropanecarboxylic acid [(R)-1-[(S)-1-(4-aminomethyl-benzylcarbamoyl)-2-phenyl-ethylcarbamoyl]-2-(4-ethoxy-phenyl)-ethyl]-amide] were, in that order, 0.545 µM and > 10 µM.
The like results for `CCOc1ccc(C[C@@H](NC(=O)c2scnc2C)C(=O)N[C@@H](Cc2ccccc2)C(=O)NCc2ccc(CN)cc2)cc1` [Example 117, 4-Methyl-thiazole-5-carboxylic acid[(R)-1-[(S)-1-(4-aminomethyl-benzylcarbamoyl)-2-phenyl-ethylcarbamoyl]-2-(4-ethoxy-phenyl)-ethyl]-amide] were, in that order, 0.048 µM and 6.1 µM.
